Assay results reported in article PMC8704606, “The Artemiside-Artemisox-Artemisone-M1 Tetrad: Efficacies against Blood Stage P. falciparum Parasites, DMPK Properties, and the Case for Artemiside” (Pharmaceutics, 2021).
Read-outs that look alike come from different tables or passages of the source.

What was measured:
W2 (CQ resistant) = test system: W2 (CQ resistant); set-up: method as in ref S2; conditions: [3H]-hypoxanthine assay; ref S2; read-out: Antimalarial activities IC50 W2; cited from earlier work
[1] = test system: TM93-C1088 (atovaquone and CQ resistant); set-up: method as in ref S2; conditions: [3H]-hypoxanthine assay; ref S2; read-out: Antimalarial activities IC50 TM93-C1088; cited from earlier work
[2] = test system: fetal rat brain stem cells; conditions: cited from earlier work
[3] = single dose 10 mg/kg, healthy Aotus monkeys; cited from earlier work
7G8 (CQ resistant) = test system: 7G8 (CQ resistant); set-up: method as in ref S2; conditions: [3H]-hypoxanthine assay; ref S2; read-out: Antimalarial activities IC50 7G8; cited from earlier work
[4] = test system: early-stage (EG) Pf NF54 gametocytes; set-up: method as in PMID 29866868; conditions: early-stage gametocytes >95% stages II-III; 48 h incubation; ± SEM; cited from earlier work
[5] = test system: late-stage (LG) Pf NF54 gametocytes; set-up: method as in PMID 29866868; conditions: late-stage gametocytes >90% stages IV-V; 48 h incubation; ± SEM; cited from earlier work
[6] = test system: asexual blood stages of Pf K1 (drug resistant); set-up: method as in PMID 29866868, PMID 31998692; conditions: asexual blood stage Pf K1, multidrug resistant; SYBR Green I; ± SEM; cited from earlier work
[7] = test system: CQ-sensitive P. berghei N strain; conditions: Peters four-day test, mice, ref S4 (24), cited from earlier work
[8] = test system: CQ-resistant P. yoelii NS strain; conditions: Peters four-day test, mice, subcutaneous; ref S4 (24); cited from earlier work
TM-C2B = test system: TM-C2B; set-up: method as in ref S2; conditions: [3H]-hypoxanthine assay; ref S2; read-out: Antimalarial activities IC50 TM-C2B; cited from earlier work
Toxoplasma gondii (Tg) = test system: Toxoplasma gondii (Tg); set-up: method as in PMID 19635951; conditions: read-out: EC50 against Tg in vitro; cited from earlier work
[9] = test system: asexual blood stages of Pf W2 (drug resistant); set-up: method as in PMID 29866868, PMID 31998692; conditions: asexual blood stage Pf W2, multidrug resistant; SYBR Green I; ± SEM; cited from earlier work
[10] = test system: TM91-C235 (CQ and MFQ resistant); set-up: method as in ref S2; conditions: [3H]-hypoxanthine assay; ref S2; read-out: Antimalarial activities IC50 TM91-C235; cited from earlier work
[11] = test system: asexual blood stages of Pf NF54 (drug sensitive); set-up: method as in PMID 29866868, PMID 31998692; conditions: asexual blood stage Pf NF54, CQ sensitive; SYBR Green I; ± SEM; cited from earlier work
[12] = test system: asexual blood stages of Pf W2 (drug resistant); assay: SYBR Green I proliferation assay, asexual blood stages, Pf W2; format: cell-based, Plasmodium falciparum
Description: (§1) Dose response curves are in Figures S1a–c and S2a–c in the Supplementary Material 1. Table 1 also includes the historical values for artemiside and artemisone obtained using the same assay.
(§2) All other assay conditions are as previously described. Compound working solutions were prepared from a 10 mM stock solution in 100% (vol/vol) dimethyl sulfoxide (DMSO, Sigma-Aldrich) in supplemented RPMI 1640 medium containing AlbuMAX II with a final DMSO concentration of 0.1% (vol/vol), previously determined to be nontoxic to blood stage asexual parasites and gametocytes. The dose-responses of the amino-artemisinins were assayed using a 2-fold serial drug dilution on in vitro 95% ring-stage parasites at 37 °C under 90% N2, 5% CO2, and 5% O2 atmospheric conditions, detecting SYBR green I fluorescence as the proliferative marker following a 96 h drug treatment (1% parasitemia and 1% hematocrit) using a GloMaxR-Multi+ Detection System (Promega). No drug washout steps were performed during drug incubation periods prior to the assays. Activity against the Pf drug-sensitive NF54 strain and the drug-resistant K1 (resistant to CQ, quinine, pyrimethamine, and cycloguanil) and W2 (resistant to CQ, quinine, pyrimethamine, and cycloguanil) strains was evaluated. Data analysis was performed using GraphPad Prism (version 6), intra-assay variability was monitored with Z-factors, and acceptable interassay reproducibility was determined from the percent coefficient of variation (CV).

[13] = test system: late-stage (LG) Pf NF54 gametocytes; assay: Luciferase assay, late-stage gametocytes; format: cell-based, Plasmodium falciparum; conditions: fixed dose of 1 µM, 48 h incubation
Description: (§3) For screening artemisox and M1 against early- (EG) and late-stage (LG) gametocytes, the luciferase assay with transgenic NF54-pfs16-GFP-Luc and NF54-Mal8p1.16-GFP-Luc parasite lines was used. With this assay, stage-specificity of gametocytocidal action was established (Table 2). Dose-response curves are in Figures S1d,e and S2d in the Supplementary Material 1. […] As was observed previously for artemisone and artemiside, dose responses for artemisox and M1 could not be obtained at 48 h against late-stage gametocytes.
(§4) The same reference compounds with the exception of CQ were used for the early- and late-stage gametocyte assays. Gametocytocidal activity was determined using the transgenic NF54-pfs16-GFP-Luc and NF54-Mal8p1.16-GFP-Luc reporter lines. Compounds were initially screened for activity at a fixed drug concentration of 1 µM, with dose responses subsequently determined using 2-fold serial drug dilutions for 48 h against early-stage gametocytes (day 5 post-induction population, ≥95% stages II–III) and 10-fold serial drug dilutions for 48 h or 72 h against late-stage gametocytes (day 10 post-induction population, ≥90% late-stage [stages IV–V]) (2 to 3% gametocytemia, 2% hematocrit) at 37 °C under 90% N2, 5% CO2, and 5% O2 [6]. No drug washout steps were performed during the drug incubation periods prior to the assays. In all cases, an interference assay was run in parallel to eliminate the possibility of false positives arising through compound interference with the luciferase readout.

[14] = set-up: method as in PMID 34097488; conditions: cited from earlier work
D6 (CQ sensitive) = test system: D6 (CQ sensitive); set-up: method as in ref S2; conditions: [3H]-hypoxanthine assay; ref S2; read-out: Antimalarial activities IC50 D6; cited from earlier work
[15] = Cytotoxicity (LDH assay) against HepG2 cells; format: cell-based; conditions: human, HepG2 cells (hepatocellular carcinoma)
Description: Cytotoxicity against mammalian hepatocellular carcinoma cells (HepG2 cells) was determined using the lactate dehydrogenase assay (LDH, Biovision Inc., Milpitas, CA, USA). […] Compound working solutions were prepared from 10 mM stock solutions (100% DMSO) in complete DMEM to a final DMSO (Sigma-Aldrich) conc. of <0.1% (vol/vol). […] Data analysis was performed using GraphPad Prism (version 6) software.

[16] = test system: early-stage (EG) Pf NF54 gametocytes; assay: Luciferase assay, early-stage gametocytes; format: cell-based, Plasmodium falciparum; conditions: Plasmodium falciparum, NF54, 48 h, early-stage gametocytes >95% stages II-III; 48 h incubation; ± SEM
Description: as §3, §4

[17] = test system: asexual blood stages of Pf K1 (drug resistant); assay: SYBR Green I proliferation assay, asexual blood stages, Pf K1; format: cell-based, Plasmodium falciparum
Description: as §1, §2

[18] = test system: asexual blood stages of Pf NF54 (drug sensitive); assay: SYBR Green I proliferation assay, asexual blood stages, Pf NF54; format: cell-based, Plasmodium falciparum
Description: as §1, §2

## C[C@H]1[C@H](OC(=O)CCC(=O)O)O[C@@H]2O[C@@]3(C)CC[C@H]4[C@H](C)CC[C@@H]1[C@@]24OO3 [Artesunate 4, Artesunate]
W2 (CQ resistant)
  IC50: 3 ± 1.6 nM
[1]
  IC50: 1.4 ± 0.1 nM
[2]
  Viability NOEC: 0.1 µg/mL
[2]; effect on the cytoskeleton on day 7, ref S4 (24)
  Neurofilaments IC50: 5.0 µg/mL
[3]
  ex vivo antimalarial activity observable up to (post dose): up to 1 h
7G8 (CQ resistant)
  IC50: 1.5 ± 0.2 nM
[4]
  IC50: 62.8 ± 3 nM
[5]
  IC50: 259 ± 80 nM
[6]
  IC50: 4 ± 1 nM
[7]; oral daily day 0-3
  P. berghei ED90 po: 7.1 mg/kg
[7]; subcutaneous daily day 0-3
  P. berghei ED90 sc: 7.2 mg/kg
[8]
  P. yoelii ED90 sc: 22.0 mg/kg
TM-C2B
  IC50: 2.5 ± 0.5 nM
Toxoplasma gondii (Tg)
  EC50: 213 nM
[9]
  IC50: 2.4 ± 0.4 nM
[10]
  IC50: 2.9 ± 1.4 nM
[11]
  IC50: 3 ± 0.29 nM

## C[C@H]1[C@H](N2C=CS(=O)(=O)CC2)O[C@@H]2O[C@@]3(C)CC[C@H]4[C@H](C)CC[C@@H]1[C@@]24OO3 [M1 8, M1]
W2 (CQ resistant)
  IC50: 6.6 ± 0.4 nM
[1]
  IC50: 2.5 ± 0.4 nM
7G8 (CQ resistant)
  IC50: 2.6 ± 0.8 nM
[12]
  RI = IC50 W2/IC50 NF54: 0.86
[12]; Plasmodium falciparum, asexual blood stage Pf W2, multidrug resistant, SYBR Green I, 96 h, ± SEM
  IC50: 2.26 ± 0.08 nM
[13]
  inhibition of LG viability: > 90%
[14]
  fold greater human microsomal half-life than artemisone: > 15 fold
[14]; listed as M1
  fold greater human microsomal half-life than artemisone: ≥ 15 fold
TM-C2B
  IC50: 8.6 ± 8.2 nM
D6 (CQ sensitive)
  IC50: 4.7 ± 0.2 nM
[15]
  IC50 at 24 h: > 50000 nM
[16]
  IC50: 13.4 ± 2.7 nM
[10]
  IC50: 5 ± 0.6 nM
[17]
  RI (resistance index) = IC50 K1/IC50 NF54: 0.57
[17]; Plasmodium falciparum, asexual blood stage Pf K1, multidrug resistant, SYBR Green I, 96 h, ± SEM
  IC50: 1.5 ± 0.23 nM
[18]; Plasmodium falciparum, NF54, 96 h, asexual blood stage Pf NF54, CQ sensitive, SYBR Green I, 96 h, ± SEM, read-out: IC50 NF54
  IC50: 2.63 ± 0.24 nM
[18]; Plasmodium falciparum, NF54, summary over NF54, K1 and W2 strains, read-out: IC50 against asexual Pf blood stage parasites
  IC50: ~2 nM
[18]; summary over NF54, K1 and W2 strains, read-out: IC50 against asexual Pf blood stage parasites
  IC50: 1.5 to 2.6 nM
